From US7981904B2, “Acetyl CoA carboxylase inhibitors” (Takeda Pharmaceutical Company Limited, priority 2008, dated 2011)

Legend:
Human ACC2 = target: T1, Human ACC2 (Homo sapiens, UniProt O00763); test: in vitro enzymatic ACC activity assay (malachite green, absorbance at 620 nm), ACC2; format: biochemical; conditions: recombinant His-tagged human ACC2, 6.4 μg/mL; same method as ACC1
T1 construct: made in house; host or cells: SF-9 insect cells (baculovirus, pFAST-BacHTa)
Description: (§1) Provided in Example A is an in vitro enzymatic ACC activity assay for activity against ACC. The binding affinity of the test compound to ACC1 or ACC2 is determined by the changes in absorbance (at 620 nm); […]. It should be noted that a variety of other expression systems and hosts are also suitable for the expression of ACC, as would be readily appreciated by one of skill in the art.
B. Purification of Human ACC2
Human ACC2 cDNA except coding region for mitochondria localization sequence was amplified from human skeletal muscle cDNA by polymerase chain reaction using primers; 5′[…]3′ (SEQ ID NO: 3) and 5′[…]3′ (SEQ ID NO: 4). The amplified DNA fragment was digested by SalI and AflIII, and cloned into pFAST-BacHTa (Invitrogen). Preparation of recombinant vaculovirus, infection of the virus to SF-9 cells and purification of recombinant ACC2 protein with 6×His-tag at the N-terminal were performed in the same method as described above.
(§2) C. Measurement of ACC Activity
(§3) Malachite green solution was prepared by mixing 100 mL of solution A (0.12% malachite green in 5N H2SO4), 25 mL of solution B (7.5% ammonium molybdate) and 2 mL of solution C (11% TWEEN-20).
(§4) ACC1 was diluted to 8 μg/mL in reaction buffer (50 mM HEPES pH7.5, 10 mM MgCl2, 10 mM tripotassium citrate, 2 mM DTT, 0.75 mg/mL fatty acid free BSA) and 10 μL diluted enzyme solution was pored into each well of 384-well clear bottom plate. Test compound was diluted in the reaction buffer and 5 μL of the compound solution was added into each well, and the mixture was incubated at 30° C. for 60 minutes. Reaction was initiated by addition of 5 μL substrate solution (50 mM KHCO3, 200 μM ATP, 200 μM acetyl-CoA). After incubation at 30° C. for 20 minutes, reaction was terminated by addition of 5 μL malachite green solution and absorbance at 620 nm was measured.
ACC2 was diluted to 6.4 μg/mL in reaction buffer, and the activity was measured by the same method as described for ACC1.
(§5) Percent activity at each concentration of compound was calculated from the following equation:
(§6) [formula] where Abs is absorbance, Avg is average.
(§7) Data were subjected to nonlinear regression analysis using GraphPad Prism Software (GraphPad Software Inc.) to obtain IC50 values.

Human ACC1 = target: T2, Human ACC1 (Homo sapiens, UniProt Q13085); test: in vitro enzymatic ACC activity assay (malachite green, absorbance at 620 nm), ACC1; format: biochemical; conditions: recombinant His-tagged human ACC1, 8 μg/mL; 60 min preincubation, 20 min reaction at 30° C.
T2 construct: made in house; host or cells: SF-9 insect cells (baculovirus, pFAST-BacHTc)
Description: as §1
A. Purification of Human ACC1
Human ACC1 cDNA was amplified from human liver cDNA by polymerase chain reaction using primers; 5′[…]3′ (SEQ ID NO. 1) and 5′[…]3′ (SEQ ID NO: 2). The amplified DNA fragment was digested by restriction enzyme SalI and NotI, and cloned into pFAST-BacHTc (Invitrogen). This plasmid DNA was used for preparation of recombinant vaculovirus with BAC-TO-BAC Baculovirus Expression System (Invitrogen).
SF-9 cells were infected with the vaculovirus and cultured at 27° C. for 3 days. Harvested cells were homogenized in buffer A (25 mM HEPES (pH7.5), 130 mM NaCl, 1 mM EDTA, 25 mM sodium glycerophosphate, 1 mM sodium orthovanadate, 10% glycerol, complete protease inhibitor), and subjected to ultracentrifuge at 185700×g for 50 min at 4° C. ACC1 protein with 6×His-tag at the N-terminal was purified from the supernatant using Ni-NTA Super Flow Gel (QIAGEN). Eluted protein was dialysed against buffer B (50 mM HEPES (pH 7.5), 300 mM NaCl, 10 mM MgCl2, 10 mM tripotassium citrate, 2 mM dithiothreitol) and concentrated using Vivaspin20 ultrafiltration tube (Sartorius).
as §2, §3, §4, §5, §6, §7

T1 sequence (O00763 117-2458 limits assumed): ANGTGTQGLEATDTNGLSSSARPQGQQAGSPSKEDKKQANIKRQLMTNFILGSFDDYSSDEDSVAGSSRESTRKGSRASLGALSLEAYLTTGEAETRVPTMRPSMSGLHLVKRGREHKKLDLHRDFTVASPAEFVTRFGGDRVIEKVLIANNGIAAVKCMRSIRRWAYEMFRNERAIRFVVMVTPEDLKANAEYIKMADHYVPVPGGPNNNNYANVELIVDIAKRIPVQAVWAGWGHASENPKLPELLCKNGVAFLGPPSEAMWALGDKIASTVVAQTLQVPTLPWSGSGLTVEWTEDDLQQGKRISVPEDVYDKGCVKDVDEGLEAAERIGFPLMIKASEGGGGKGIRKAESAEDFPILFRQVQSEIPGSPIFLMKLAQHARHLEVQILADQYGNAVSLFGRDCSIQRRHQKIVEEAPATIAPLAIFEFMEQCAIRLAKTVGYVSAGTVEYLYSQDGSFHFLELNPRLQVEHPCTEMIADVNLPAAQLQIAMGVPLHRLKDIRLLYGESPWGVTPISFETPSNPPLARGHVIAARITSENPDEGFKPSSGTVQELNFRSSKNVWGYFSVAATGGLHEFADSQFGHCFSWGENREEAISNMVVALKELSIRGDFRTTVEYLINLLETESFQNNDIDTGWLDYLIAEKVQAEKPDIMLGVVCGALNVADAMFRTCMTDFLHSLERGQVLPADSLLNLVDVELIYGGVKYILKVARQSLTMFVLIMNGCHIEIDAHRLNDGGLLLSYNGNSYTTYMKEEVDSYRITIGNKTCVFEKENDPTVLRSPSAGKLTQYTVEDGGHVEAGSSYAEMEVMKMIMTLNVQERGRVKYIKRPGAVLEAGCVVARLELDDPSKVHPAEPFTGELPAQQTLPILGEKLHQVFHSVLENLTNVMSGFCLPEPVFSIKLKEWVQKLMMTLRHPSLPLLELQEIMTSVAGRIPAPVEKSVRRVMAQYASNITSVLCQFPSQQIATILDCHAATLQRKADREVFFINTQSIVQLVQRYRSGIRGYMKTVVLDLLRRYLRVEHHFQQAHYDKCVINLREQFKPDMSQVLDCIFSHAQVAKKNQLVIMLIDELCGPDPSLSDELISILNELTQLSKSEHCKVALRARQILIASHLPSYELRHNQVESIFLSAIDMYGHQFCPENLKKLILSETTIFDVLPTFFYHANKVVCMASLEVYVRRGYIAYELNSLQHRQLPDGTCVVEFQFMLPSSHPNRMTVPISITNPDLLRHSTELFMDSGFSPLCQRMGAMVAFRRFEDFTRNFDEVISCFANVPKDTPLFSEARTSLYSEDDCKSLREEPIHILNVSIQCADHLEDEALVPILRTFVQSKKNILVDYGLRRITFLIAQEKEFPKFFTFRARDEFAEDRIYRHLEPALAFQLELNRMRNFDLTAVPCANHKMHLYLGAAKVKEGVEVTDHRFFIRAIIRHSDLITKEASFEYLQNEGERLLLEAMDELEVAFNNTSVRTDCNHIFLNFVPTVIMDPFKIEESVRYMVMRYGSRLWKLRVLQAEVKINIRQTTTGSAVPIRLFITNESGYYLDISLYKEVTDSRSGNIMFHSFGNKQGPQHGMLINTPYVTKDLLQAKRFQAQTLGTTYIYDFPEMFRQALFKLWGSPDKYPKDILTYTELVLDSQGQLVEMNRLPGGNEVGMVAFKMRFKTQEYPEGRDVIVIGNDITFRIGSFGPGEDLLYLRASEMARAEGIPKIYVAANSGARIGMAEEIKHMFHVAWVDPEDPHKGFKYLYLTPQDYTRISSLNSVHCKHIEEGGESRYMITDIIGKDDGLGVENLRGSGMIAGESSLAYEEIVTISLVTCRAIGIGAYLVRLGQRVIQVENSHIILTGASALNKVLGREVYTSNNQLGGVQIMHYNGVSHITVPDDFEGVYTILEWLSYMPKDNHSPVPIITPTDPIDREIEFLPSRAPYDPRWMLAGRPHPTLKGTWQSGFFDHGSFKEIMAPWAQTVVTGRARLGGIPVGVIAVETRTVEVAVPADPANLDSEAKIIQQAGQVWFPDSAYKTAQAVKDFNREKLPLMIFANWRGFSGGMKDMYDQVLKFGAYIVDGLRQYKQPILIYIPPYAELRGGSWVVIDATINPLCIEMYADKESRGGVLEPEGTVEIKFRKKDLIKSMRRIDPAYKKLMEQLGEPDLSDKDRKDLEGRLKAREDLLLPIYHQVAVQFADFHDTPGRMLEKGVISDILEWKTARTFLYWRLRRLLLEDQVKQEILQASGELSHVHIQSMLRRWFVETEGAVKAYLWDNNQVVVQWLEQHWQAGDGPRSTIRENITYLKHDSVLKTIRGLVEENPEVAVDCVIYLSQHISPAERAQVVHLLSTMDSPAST

Structure (SMILES) | IC50 (Human ACC2) | IC50 (Human ACC1)
CCNC(=O)Nc1sc2ccccc2c1C(=O)N1CCC2(CC1)N=C(Cn1ccccc1=O)NC2=O [Compound 33, 1-ethyl-3-(3-(4-oxo-2-((2-oxopyridin-1(2 H)-yl)methyl)-1,3,8-triazaspiro[4.5]dec-1-enecarbonyl)benzo[b]thiophen-2-yl)urea] | 1 to 10 µM | > 10 µM
CCNC(=O)Nc1sc2ccccc2c1C(=O)N1CCC2(CC1)N=C(CCC(=O)N(CC)CC)NC2=O [Compound 12, N,N-diethyl-3-(8-(2-(3-ethylureido)benzo[b]thiophene-3-carbonyl)-4-oxo-1,3,8-triazaspiro[4.5]dec-1-en-2-yl)propanamide] | 1 to 10 µM | 1 to 10 µM
CCNC(=O)Nc1sc2ccccc2c1C(=O)N1CCC2(CC1)N=C(COC1CCCCC1)NC2=O [Compound 28, 1-(3-(2-(cyclohexyloxymethyl)-4-oxo-1,3,8-triazaspiro[4.5]dec-1-enecarbonyl)benzo[b]thiophen-2-yl)-3-ethylurea] | < 1 µM | 1 to 10 µM
CCNC(=O)Nc1sc2ccccc2c1C(=O)N1CCC2(CC1)N=C(CCC(=O)N1CCCCC1)NC2=O [Compound 13, 1-ethyl-3-(3-(4-oxo-2-(3-oxo-3-(piperidin-1-yl)propyl)-1,3,8-triazaspiro[4.5]dec-1-enecarbonyl)benzo[b]thiophen-2-yl)urea] | < 1 µM | 1 to 10 µM
CCNC(=O)Nc1sc2ccccc2c1C(=O)N1CCC2(CC1)N=C(CSC(C)C)NC2=O [Compound 22, 1-ethyl-3-(3-(2-(isopropylthiomethyl)-4-oxo-1,3,8-triazaspiro[4.5]dec-1-enecarbonyl)benzo[b]thiophen-2-yl)urea] | < 1 µM | 1 to 10 µM
CCCCN1C=NC2(CCN(C(=O)c3c(NC(=O)NCC)sc4ccccc34)CC2)C1=O [Compound 20, 1-(3-(3-butyl-4-oxo-1,3,8-triazaspiro[4.5]dec-1-enecarbonyl)benzo[b]thiophen-2-yl)-3-ethylurea] | 1 to 10 µM | > 10 µM
CCNC(=O)Nc1sc2ccccc2c1C(=O)N1CCC2(CC1)N=C(Cn1cc(CN)nn1)NC2=O [Compound 34, 1-(3-(2-((4-(aminomethyl)-1 H-1,2,3-triazol-1-yl)methyl)-4-oxo-1,3,8-triazaspiro[4.5]dec-1-enecarbonyl)benzo[b]thiophen-2-yl)-3-ethylurea] | > 10 µM | > 10 µM

Further lines, results first:

IC50 (Human ACC2) | IC50 (Human ACC1) | Structure (SMILES)
1 to 10 µM | 1 to 10 µM | CCNC(=O)Nc1sc2ccccc2c1C(=O)N1CCC2(CC1)N=C(CCC(=O)OCC)NC2=O [Compound 10, ethyl 3-(8-(2-(3-ethylureido)benzo[b]thiophene-3-carbonyl)-4-oxo-1,3,8-triazaspiro[4.5]dec-1-en-2-yl)propanoate]
> 10 µM | > 10 µM | CCNC(=O)Nc1sc2ccccc2c1C(=O)N1CCC2(CC1)N=CNC2=O [Compound 14, 1-ethyl-3-(3-(4-oxo-1,3,8-triazaspiro[4.5]dec-1-enecarbonyl)benzo[b]thiophen-2-yl)urea]
< 1 µM | 1 to 10 µM | CCNC(=O)Nc1sc2c(OC)cccc2c1C(=O)N1CCC2(CC1)NC(c1ccccc1)=NC2=O [Compound 18, 1-ethyl-3-(7-methoxy-3-(4-oxo-2-phenyl-1,3,8-triazaspiro[4.5]dec-2-enecarbonyl)benzo[b]thiophen-2-yl)urea]
1 to 10 µM | > 10 µM | CCNC(=O)Nc1sc2ccccc2c1C(=O)N1CCC2(CC1)N=C(Cn1cc(CO)nn1)NC2=O [Compound 37, 1-ethyl-3-(3-(2-((4-(hydroxymethyl)-1 H-1,2,3-triazol-1-yl)methyl)-4-oxo-1,3,8-triazaspiro[4.5]dec-1-enecarbonyl)benzo[b]thiophen-2-yl)urea]
> 10 µM | > 10 µM | CCNC(=O)Nc1sc2ccccc2c1C(=O)N1CCC2(CC1)N=C(CN1C(=O)CCC1=O)NC2=O [Compound 5, 1-(3-(2-((2,5-dioxopyrrolidin-1-yl)methyl)-4-oxo-1,3,8-triazaspiro[4.5]dec-1-enecarbonyl)benzo[b]thiophen-2-yl)-3-ethylurea]
< 1 µM | 1 to 10 µM | CCNC(=O)Nc1sc2c(OC)cccc2c1C(=O)N1CCC2(CC1)N=C(C(C)C)NC2=O [Compound 16, 1-ethyl-3-(3-(2-isopropyl-4-oxo-1,3,8-triazaspiro[4.5]dec-2-enecarbonyl)-7-methoxybenzo[b]thiophen-2-yl)urea]
